Activity calls are given as the source filed them. The calls are words filed in the database; no cut-off is given here.

The test system of the assay is Human immunodeficiency virus 1. The assay can be described thus: Antiviral activity against HIV1 infected in human H9 cells assessed as inhibition of virus-induced cytopathic effect by tetrazolium-based method. It is filed as functional, organism-based.

For `CC(=O)NC(CCCC#CCC(Cl)(Cl)Cl)CCCC#CCC(Cl)(Cl)Cl`, the result was inactive.

Take `CC(=O)NC(CCCC#CCC(Cl)Cl)CCCC#CCC(Cl)(Cl)Cl` (configuration not stated): the result was inactive.

Values taken from ChEMBL document CHEMBL1150830, “Polychlorinated acetamides from the cyanobacterium Microcoleus lyngbyaceus” (J Nat Prod, 2001).
